# Experimental data published in patent US20230130791A1, “A Combined Inhibition of EGFR and NRF2 in The Treatment of Malignant Glioma” (United States Government as represented by the Department …, priority 2020, published 2023).
# Where two headings read alike, the source gives them in different places.
# What was measured:
# [1] = Human, cited from earlier work
# p21 = p21 response to erlotinib (FIG. 12); format: cell-based; settings: in response to erlotinib
# Excerpt: p21. p21Cip1/WAF1 is a cyclin-dependent kinase inhibitor that regulates the cell cycle and acts as an antioxidant. The antioxidant function of p21 is mediated through stabilization of Nrf2. Thus, p21 is an interesting target for study.
# [2] = Mouse, cited from earlier work; for T½: parent drug (SASP for Sulfazaline)
# GBM 12 or GBM6 cells = assay: ROS by MitoTracker Red CM-H2XRos; format: cell-based, human; settings: erlotinib 1 uM, 24 hours
# Excerpt: Oxidative stress. Without wishing to be bound by theory, it is hypothesized that a sudden inhibition of EGFR signaling may increase oxidative stress and thus activate Nrf2. Previous studies have reported that EGFR inhibition leads to increased oxidative stress in lung and head and neck cancers (Orcutt, et al. (2011) Erlotinib-mediated inhibition of EGFR signaling induces metabolic oxidative stress through NOX4, Cancer Res 71, 3932-3940; Qian, et al. (2009) Clin Exp Pharmacol Physiol 36, 487-494). […] MitoTracker® Red CM-H2XRos (Fisher), a reduced nonfluorescent dye which is taken up passively by living cells, will be used. In the mitochondria, the dye is oxidized by superoxide, resulting in the emission of red fluorescence.
# MitoTracker® Red CM-H2XRos (Fisher) was added to culture media at a concentration of 100 nM and incubated at 37° C. in a humidified incubator containing 5% CO2 for 30 minutes, the cells were then fixed in ice-cold methanol for 15 min at −20° C. followed by fluorescence microscopy.
# Mayo PDX GBM12 cells = assay: GSH/GSSG ratio by metabolite profiling (LC-MS/MS); format: cell-based, human; settings: GBM12, 24 hour exposure, means±SD of four experiments
# Excerpt: Determination of GSH levels will be undertaken at a Biochemistry Core Facility at UT Southwestern using metabolite profiling as previously described (Krall, et al. (2017) KEAP1 loss modulates sensitivity to kinase targeted therapy in lung cancer, Elife 6; Yuan, et al. (2012) Nat Protoc 7, 872-881). Samples will be analyzed by liquid chromatography tandem mass spectrometry (LC-MS/MS) using positive ion/negative ion polarity switching via selected reaction monitoring (SRM) on a 5500 QTRAP hybrid triple quadrupole mass spectrometer. Peaks will be integrated using MultiQuant 2.1 data analysis software (AB/SCIEX). The ratio of reduced intracellular glutathione to oxidized glutathione is a measure of oxidative stress.
# Data are presented as means±SD of four experiments. […] GSH, reduced glutathione; GSSG, oxidized glutathione.
# Keap1 = assay: Cellular level of total Keap1; format: cell-based; settings: data not shown
# [3] = Toxicity in mice by gavage; settings: 50-100 mg/kg by gavage
# GBM12 cells [4] = assay: RNAseq transcriptome and pathway analysis after erlotinib; format: cell-based, human
# Excerpt: These q-values are corrected from p-values of the hypergeometric test, for multiple testing using the false discovery rate (FDR) method.
# [5] = in vivo; cited from earlier work
# glioma cells = assay: Cell survival/viability assays in glioma cells (general statements); format: cell-based; settings: for synergy with EGFR inhibition in cell survival assays: FIG. 5
# preclinical GBM models = assay: Preliminary orthotopic GBM experiments (FIG. 6, general statements); format: in vivo
# GBM12 cells [6] = assay: Alamarblue cell viability assay, GBM12; format: cell-based, human; settings: GBM12, 72 hours; ML385 1 μm, INH 1 μm, sulfasalazine 5 μm
# Excerpt: ML385 (1 μm) and isoniazid (INH 1 μm) are Nrf2 inhibitors while Erastin and sulfasalazine (5 μm) are xCT inhibitors.
# [7] = parent drug (SASP for Sulfazaline)
# [8] = parent drug (SASP for Sulfazaline), dose per Table 5
# [9] = TNF inhibitor added to erlotinib
compound,measurement,setting,value
"C#Cc1cccc(Nc2ncnc3cc(OCCOC)c(OCCOC)cc23)c1 [Erlotinib, erlotinib]",Cmax,[1]; [7],872 ng/mL
same,AUC,[1]; [8],"11,860 ng * hr/ml"
same,p21 level,p21,not upregulated
same,AUC,[2]; 12.5 mg/kg QD,"27,042 ng * hr/ml"
same,Cmax,[2]; 12.5 mg/kg QD,"3,513 ng/mL"
same,T½,[2],3.1 h
same,ROS (Mitotracker dye),GBM 12 or GBM6 cells,increase in ROS
same,GSH/GSSG,Mayo PDX GBM12 cells,68.5 ± 15.2
same,cellular level of total Keap1,Keap1,not changed
same,toxicity,[3],without significant toxicity
same,"Genes, Erl-induced pathway",GBM12 cells [4]; Axon guidance,42
same,"Genes, Erl-induced pathway",GBM12 cells [4]; Ectoderm Differentiation,35
same,"Genes, Erl-induced pathway",GBM12 cells [4]; Glutathione conjugation,14
same,"Genes, Erl-induced pathway",GBM12 cells [4]; NRF2 pathway,40
same,"Genes, Erl-induced pathway",GBM12 cells [4]; Validated targets of C-MYC transcriptional repression,23
same,"Genes, Erl-induced pathway",GBM12 cells [4]; Validated transcriptional targets of Tap63 isoforms,19
same,genes upregulated by RNAseq,"GBM12 cells [4]; erlotinib 1 μM, 24 hours, GBM 12 cells",3635
same,GPX3 expression in GBM,GBM12 cells [4]; in response to erlotinib (FIG. 3),upregulated
"NNC(=O)c1ccncc1 [INH, isoniazid]",AUC,[1]; 150 mg QD for 6 months,19.7 mg·h/L
same,Cmax,[1]; 150 mg QD for 6 months,4830 ng/mL
same,AUC,[2]; 25 mg/kg QD for 4 wks,27.3 mg·h/L
same,Cmax,[2]; 25 mg/kg QD for 4 wks,22 µg/mL
same,CNS penetration,[5],highly CNS penetrable
same,synergy with EGFR inhibition in cell survival assays,glioma cells,synergizes with EGFR inhibition
same,tumor growth / efficacy in orthotopic experiments,preclinical GBM models,no effect
same,"sensitization of cells to erlotinib, cell viability",GBM12 cells [6],sensitizes
"CCc1cc(C(N)=S)ccn1 [Ethionamide, ethionamide]","synergy with EGFR inhibition, cell viability assay","glioma cells; erlotinib 1 μM and/or ethionamide 1 μM, 72 hours",synergizes with EGFR inhibition
Cc1ccccc1C(=O)N1CCc2cc(-c3nc(NC(=O)Cc4ccc5c(c4)OCO5)sc3C)ccc21 [ML385],"sensitization of cells to erlotinib, cell viability",GBM12 cells [6],sensitizes
O=C(O)c1cc(/N=N/c2ccc(S(=O)(=O)Nc3ccccn3)cc2)ccc1O [sulfasalazine],AUC,[1]; [7],(122 μM * hr
same,Cmax,[1]; [7],5351 ng/mL
same,T½,[1]; [7],9.8 h
same,AUC,[1]; [8],"48,500 ng * hr/ml"
same,AUC of SASP,"[2]; 67.5 mg/kg QD for 3 wks, analyte SASP",SASP: 21 μM * hr
same,T½,[2],0.9 h
same,synergy with EGFR inhibition in cell survival assays,glioma cells,synergizes with EGFR inhibition
same,"sensitization of cells to erlotinib, cell viability",GBM12 cells [6],sensitizes
"CN(C)C/C=C/C(=O)Nc1cc2c(Nc3ccc(F)c(Cl)c3)ncnc2cc1O[C@H]1CCOC1 [Afatinib, afatinib]",AUC,[1]; [7],(~1-2 μM * hr
same,Cmax,[1]; [7],30 to 40 ng/mL
same,T½,[1]; [7],60.3 h
same,AUC,[1]; [8],0.459 to 0.956 mg·h/L
same,Cmax,[1]; read-out: Cmax,60 to 80 nM
same,AUC,[2]; 30 mg/kg QD,(2375 nM * hr
same,Cmax,[2]; 30 mg/kg QD,417 nM
same,T½,[2],5 h
etanercept,block of the 40 NRF2 target genes induced by erlotinib,GBM12 cells [4]; [9],could not be blocked
same,upregulation of erlotinib induced genes blocked,GBM12 cells [4]; [9],25%
